Results reported in paper PMC10682101, “In vitro pharmacological characterization of standard and new lysophosphatidic acid receptor antagonists using dynamic mass redistribution assay” (Frontiers in Pharmacology, 2023).
“Also recorded” adds a separate entry of the source.

Experiments:
human LPA2 receptor [1] = target: T1, human LPA2 receptor (Homo sapiens, UniProt Q9HBW0); assay: Dynamic mass redistribution (DMR) assay in CHOLPA2 cells; details: for Shift of the concentration–response curve to LPA / DMR effect per se / Agonism Emax / Agonism pEC50: CHOLPA2, DMR; for Shift of the concentration–response curve to LPA: antagonism protocol, 1 µM; for DMR effect per se: concentration–response up to highest concentration tested; for DMR response: CHOLPA2 cells; for Agonism Emax / Agonism pEC50: negative DMR signal, peak, up to 10 µM (compound 35 up to 1 µM), °inactive at 10 μM
Protocol: Confluent cells were sub-cultured using trypsin/EDTA and used for experiments. Cells were seeded at a density of 20,000 cells/well in 30 µL into fibronectin-coated EnspireTM-LC 384-well plates and cultured for 20 h to form a confluent monolayer. On the day of the experiment, the cells were manually washed twice and maintained with assay buffer (HBSS with 20 mM HEPES, 0.01% BSA) for 90 min before DMR experiments. DMR was monitored in real time with a temporal resolution of 44 s throughout the assay. Experiments were performed at 37°C using an EnSight Multimode Plate Reader (PerkinElmer). The agonism protocol was as follows: before addition of the ligand, the DMR signal was measured for 5 min, and the average of the signals recorded during this period was set as the baseline (pm = 0). Compounds are added manually in a volume of 10 µL, and the triggered DMR signals were recorded for 60 min. […] Responses were described in the form of picometer shift over time (seconds) following the subtraction of values from vehicle-treated wells. Maximum picometer (pm) modification (peak) and area under the curve (AUC) were used to determine the agonist response.
All data were analyzed using GraphPad Prism 9.4 (La Jolla, CA, United States). Concentration–response curves were fitted using the four-parameter log-logistic equation. Data are expressed in the form mean ± s.e.m. across n experiments performed in duplicate. […] In practice, equiactive concentrations of the agonist in the absence ([A]) and presence ([A’]) of a non-competitive antagonist ([B]) were compared in a double reciprocal plot describing a straight line, and pKB was derived from the equation: pKB = log[(slope—1)/[B]]. […] Maximal effect data were analyzed using the Student’s t-test or a one-way ANOVA followed by Dunnett’s post-hoc test.

human LPA2 receptor [2] = target: T1, human LPA2 receptor; assay: Calcium mobilization assay in CHOLPA2 cells; details: CHOLPA2, calcium mobilization; for Effect per se / Shift of the concentration–response curve to LPA: 1 µM; for Effect per se: data not shown; for Shift of the concentration–response curve to LPA: antagonism protocol; for Agonism Emax / Agonism pEC50: #inactive at 1 μM
human LPA1 receptor [3] = target: T2, human LPA1 receptor (Homo sapiens, UniProt Q92633); assay: Dynamic mass redistribution (DMR) assay in CHOLPA1 cells; details: for EC50: Agonism pEC50, CHOLPA1, DMR; for Shift of the concentration–response curve to LPA: antagonism protocol; for Agonism Emax: negative DMR signal; for DMR response: CHOLPA1 cells
Protocol: All data were analyzed using GraphPad Prism 9.4 (La Jolla, CA, United States). Concentration–response curves were fitted using the four-parameter log-logistic equation. Data are expressed in the form mean ± s.e.m. across n experiments performed in duplicate. Agonist potency is expressed in the form pEC50, which is the negative logarithm to base 10 of the agonist molar concentration that produces 50% of the maximal possible effect of that agonist. […] In practice, equiactive concentrations of the agonist in the absence ([A]) and presence ([A’]) of a non-competitive antagonist ([B]) were compared in a double reciprocal plot describing a straight line, and pKB was derived from the equation: pKB = log[(slope—1)/[B]]. […] Maximal effect data were analyzed using the Student’s t-test or a one-way ANOVA followed by Dunnett’s post-hoc test.

human LPA1 receptor [4] = target: T2, human LPA1 receptor; assay: Calcium mobilization assay in CHOLPA1 cells; details: for Effect per se: 1 µM, data not shown; for Shift of the concentration–response curve to LPA: antagonism protocol (compound 35, compound 20 at 1 µM)
CHO wild-type cells = assay: DMR assay in CHO wild-type cells (control); type: cell-based; details: for DMR response: CHO cells
Protocol: Confluent cells were sub-cultured using trypsin/EDTA and used for experiments. Cells were seeded at a density of 20,000 cells/well in 30 µL into fibronectin-coated EnspireTM-LC 384-well plates and cultured for 20 h to form a confluent monolayer. On the day of the experiment, the cells were manually washed twice and maintained with assay buffer (HBSS with 20 mM HEPES, 0.01% BSA) for 90 min before DMR experiments. DMR was monitored in real time with a temporal resolution of 44 s throughout the assay. Experiments were performed at 37°C using an EnSight Multimode Plate Reader (PerkinElmer). The agonism protocol was as follows: before addition of the ligand, the DMR signal was measured for 5 min, and the average of the signals recorded during this period was set as the baseline (pm = 0). Compounds are added manually in a volume of 10 µL, and the triggered DMR signals were recorded for 60 min. The antagonism protocol was as follows: antagonists were added manually 25 min before reading the 5 min baseline. […] Responses were described in the form of picometer shift over time (seconds) following the subtraction of values from vehicle-treated wells. Maximum picometer (pm) modification (peak) and area under the curve (AUC) were used to determine the agonist response.

LPA2 receptor = target: LPA2 receptor; design: method as in Beck et al., 2008; details: ref Beck et al., 2008, cited from earlier work
LPA1 = system: LPA1; design: method as in Cheng et al., 2021; details: LPA1 antagonist, calcium mobilization; ref Cheng et al., 2021; cited from earlier work
[5] = design: method as in Palmer et al., 2018; details: patients with idiopathic pulmonary fibrosis, ref Palmer et al., 2018, cited from earlier work
[6] = negative DMR signal (inverse agonism), peak, up to 10 µM (compound 35 up to 1 µM), °inactive at 10 μM
[7] = CHOLPA1, DMR, peak, up to 10 µM (compound 35 up to 1 µM), °inactive at 10 μM
[8] = CHOLPA1, calcium mobilization, #inactive at 1 μM
[9] = CHOLPA1, calcium mobilization, *inactive at 0.1 µM

T1 sequence (Q9HBW0 whole entry): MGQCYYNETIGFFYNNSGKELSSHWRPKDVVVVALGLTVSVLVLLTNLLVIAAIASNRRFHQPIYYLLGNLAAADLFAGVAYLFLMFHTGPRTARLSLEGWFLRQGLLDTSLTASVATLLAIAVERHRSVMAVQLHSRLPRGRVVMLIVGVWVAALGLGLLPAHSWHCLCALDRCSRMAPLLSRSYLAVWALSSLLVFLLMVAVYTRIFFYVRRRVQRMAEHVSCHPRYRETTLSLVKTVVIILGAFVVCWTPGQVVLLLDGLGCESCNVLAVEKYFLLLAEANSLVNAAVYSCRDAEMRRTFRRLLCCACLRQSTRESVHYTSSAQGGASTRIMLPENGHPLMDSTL
T2 sequence (Q92633 whole entry): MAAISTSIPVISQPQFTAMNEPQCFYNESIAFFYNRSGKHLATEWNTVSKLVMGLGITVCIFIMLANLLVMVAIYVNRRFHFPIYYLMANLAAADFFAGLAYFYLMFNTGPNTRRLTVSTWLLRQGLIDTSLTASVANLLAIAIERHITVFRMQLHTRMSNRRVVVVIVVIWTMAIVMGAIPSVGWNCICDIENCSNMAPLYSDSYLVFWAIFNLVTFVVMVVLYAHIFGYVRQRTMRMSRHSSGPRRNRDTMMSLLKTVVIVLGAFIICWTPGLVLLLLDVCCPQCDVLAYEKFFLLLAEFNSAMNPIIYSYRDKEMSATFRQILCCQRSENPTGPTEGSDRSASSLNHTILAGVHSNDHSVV

DMR response (human LPA2 receptor [1]; compound 10 μM, mean ± s.e.m.)	Effect per se (human LPA2 receptor [2])	EC50 (human LPA1 receptor [3]; [6])	Agonism Emax (human LPA1 receptor [3]; [7])	DMR response (human LPA1 receptor [3]; compound 10 μM, mean ± s.e.m.)	Effect per se (human LPA1 receptor [4]; CHOLPA1, calcium mobilization)	Agonism Emax (human LPA2 receptor [1])	Agonism pEC50 (human LPA2 receptor [1])	Agonism Emax (human LPA2 receptor [2])	Agonism pEC50 (human LPA2 receptor [2])	Compound	Shift of the concentration–response curve to LPA (human LPA2 receptor [1])	DMR effect per se (human LPA2 receptor [1])	Shift of the concentration–response curve to LPA (human LPA2 receptor [2])	Shift of the concentration–response curve to LPA (human LPA1 receptor [3]; CHOLPA1, DMR, 1 µM)	DMR response (CHO wild-type cells; compound 10 μM, mean ± s.e.m.)	Shift of the concentration–response curve to LPA (human LPA1 receptor [4]; CHOLPA1, calcium mobilization)	further results
−55 ± 19 pm	inactive	309 nM	−68 ± 13 pm	−78 ± 18 pm	inactive					Cc1noc(-c2ccc(O[C@H]3CC[C@@H](C(=O)O)CC3)cc2)c1NC(=O)O[C@H](C)c1ccccc1Cl [Compound CHI]	did not shift the concentration–response curve to LPA	inactive	did not shift the concentration–response curve to LPA	active as an LPA1 antagonist only in calcium mobilization experiments	−4 ± 22 pm		Kb (human LPA1 receptor [4]; pKB, CHOLPA1, calcium mobilization, Gaddum method, 1 µM antagonist): 57.5 nM; DMR effect per se (CHO wild-type cells; CHO wild-type cells, 10 µM): inactive
	did not produce any effect per se		Crc incomplete		did not produce any effect per se	Crc incomplete	Crc incomplete	Inactive^#	Inactive^#	Cc1csc2c(N[C@@H](C)CN3CCN(S(=O)(=O)c4ccc(Cl)c(Cl)c4)CC3)ncnc12 [Compound 35]	shifted the concentration–response curve to LPA to the right	inactive per se, or slightly active only at the higher concentration tested	shifted the concentration–response curve to LPA to the right	did not shift the concentration–response curve to LPA to the right		did not shift the concentration–response curve to LPA to the right	DMR response (human LPA2 receptor [1]; compound 35 1 μM): −88 ± 6 pm; Agonism pEC50 (human LPA1 receptor [3]; CHOLPA1, DMR, negative DMR signal (inverse agonism), peak, up to 10 µM (compound 35 up to 1 µM), °inactive at 10 μM): Crc incomplete; DMR effect per se (human LPA1 receptor [3]; CHOLPA1, DMR, up to highest concentration tested (10 μM; compound 35 1 µM)): only a slight negative signal at the highest concentration tested; DMR response (human LPA1 receptor [3]; compound 35 1 μM): −101 ± 10 pm; Kb (human LPA1 receptor [4]; Antagonism pKB/pA2, CHOLPA1, calcium mobilization, LPA curve in absence and presence of 1 µM compound): > 1000 nM; Agonism Emax (human LPA1 receptor [4]; [8]): Inactive^#; Agonism pEC50 (human LPA1 receptor [4]; [8]): Inactive^#; pIC50 (LPA2 receptor; inhibition of stimulant activity of LPA on Ca2+ mobilization, LPA2-transfected cells): 7.77; Selectivity for LPA2 vs. LPA1 and LPA3 receptors (LPA2 receptor): highly selective; DMR response (CHO wild-type cells; compound 35 1 μM): −27 ± 13 pm
										Nc1ncnc2c1ncn2[C@@H]1O[C@H](COP(=O)(O)OP(=O)(O)OP(=O)(O)O)[C@@H](O)[C@H]1O [ATP]							DMR response (human LPA2 receptor [1]; ATP 100 μM): 96 ± 13 pm; DMR response (human LPA1 receptor [3]; ATP 100 μM): 84 ± 6 pm; DMR response (CHO wild-type cells; ATP 100 μM): 156 ± 11 pm
−79 ± 18 pm	did not produce any effect per se	87.1 nM		−134 ± 28 pm	did not produce any effect per se	Crc incomplete	Crc incomplete	Inactive^#	Inactive^#	Cc1noc(-c2ccc(-c3ccc(C4(C(=O)O)CC4)cc3)cc2)c1NC(=O)O[C@H](C)c1ccccc1 [BMS-986020]		inactive per se, or slightly active only at the higher concentration tested	shifted the concentration–response curve to LPA to the right	shifted the concentration–response curve to LPA to the right	−39 ± 17 pm	shifted the concentration–response curve to LPA to the right	pKB (LPA1): ~8; Kb (human LPA1 receptor [3]): 79.4 nM; Effect on LPA maximal effect (human LPA1 receptor [3]; CHOLPA1, DMR, tested as antagonist, 1 µM): produced a reduction in LPA maximal effect; also recorded: slight but statistically significant reduction in LPA maximal effect; Agonism Emax (human LPA1 receptor [4]; [9]): Inactive*; Agonism pEC50 (human LPA1 receptor [4]; [9]): Inactive*; Effect on LPA maximal effect (human LPA1 receptor [4]; CHOLPA1, calcium mobilization, tested as antagonist): produced a reduction in LPA maximal effect; Rate of decline in forced vital capacity ([5]; compared with placebo): slower rate of decline in forced vital capacity; Cholecystitis ([5]; study interrupted): three cases of cholecystitis; Hepatic enzymes ([5]; study interrupted): elevation in hepatic enzymes
